Measured values from ChEMBL document CHEMBL1136322, “QSAR study on antibacterial activity of sulphonamides and derived Mannich bases” (Bioorg Med Chem Lett, 2003).

Legend:
Escherichia coli [1] = assay: Antibacterial activity against Escherichia coli at a concentration of 80 ug/mL; format: functional
Escherichia coli [2] = assay: Antibacterial activity against Escherichia coli at a concentration of 20 ug/mL; format: functional
[3] = Toxic effect after oral administration (6400 mg/kg) was determined in mice; No effect; format: toxicity, organism-based; settings: mouse, in vivo
[4] = Lethal dose after intraperitoneal administration in mice; format: toxicity; settings: mouse, in vivo, ip
Escherichia coli [5] = assay: Antibacterial activity against Escherichia coli at a concentration of 40 ug/mL; format: functional
Escherichia coli [6] = assay: Antibacterial activity against Escherichia coli at a concentration of 10 ug/mL; format: functional
Klebsiella pneumoniae [7] = assay: Antibacterial activity against Klebsiella pneumoniae at a concentration of 80 ug/mL; format: functional
Klebsiella pneumoniae [8] = assay: Antibacterial activity against Klebsiella pneumoniae at a concentration of 160 ug/mL; format: functional
Klebsiella pneumoniae [9] = assay: Antibacterial activity against Klebsiella pneumoniae at a concentration of 40 ug/mL; format: functional
Klebsiella pneumoniae [10] = assay: Antibacterial activity against Klebsiella pneumoniae at a concentration of 120 ug/mL; format: functional
Bacillus subtilis [11] = assay: Antibacterial activity against Bacillus subtilis at a concentration of 40 ug/mL; format: functional
Bacillus subtilis [12] = assay: Antibacterial activity against Bacillus subtilis at a concentration of 160 ug/mL; format: functional
Bacillus subtilis [13] = assay: Antibacterial activity against Bacillus subtilis at a concentration of 120 ug/mL; format: functional
Bacillus subtilis [14] = assay: Antibacterial activity against Bacillus subtilis at a concentration of 80 ug/mL; format: functional

**Q.** What does the source list for `N=C(N)NS(=O)(=O)c1ccc(NCNC(=O)c2ccc(NC(=O)c3cccnc3)cc2)cc1`?
**A.** Zone of inhibition (Escherichia coli [1]): 11.7 mm; Zone of inhibition (Escherichia coli [2]): 11.4 mm; Toxic effect [3]: Not Active; Lethal dose [4]: 1000 mg/kg; Zone of inhibition (Escherichia coli [5]): 11 mm; Zone of inhibition (Escherichia coli [6]): 10.9 mm

**Q.** With `Cc1nnc(NS(=O)(=O)c2ccc(NCNC(=O)c3ccc(NC(=O)c4cccnc4)cc3)cc2)s1` as the compound, how does the Zone of inhibition (Escherichia coli [1]) read?
**A.** 15 mm

**Q.** And the Zone of inhibition (Escherichia coli [2])?
**A.** 14.9 mm

**Q.** What about the Toxic effect [3] of the same compound?
**A.** Not Active

**Q.** What about the Lethal dose [4] of the same compound?
**A.** 1000 mg/kg

**Q.** And the Zone of inhibition (Escherichia coli [5])?
**A.** 14.4 mm

**Q.** What about the Zone of inhibition (Escherichia coli [6]) of the same compound?
**A.** 12.4 mm

**Q.** With `NS(=O)(=O)c1ccc(NCNC(=O)c2ccc(NC(=O)c3cccnc3)cc2)cc1` as the compound, how does the Zone of inhibition (Klebsiella pneumoniae [7]) read?
**A.** 12 mm

**Q.** What about the Zone of inhibition (Escherichia coli [1]) of the same compound?
**A.** 13.2 mm

**Q.** And the Zone of inhibition (Klebsiella pneumoniae [8])?
**A.** 21.4 mm

**Q.** What about the Zone of inhibition (Escherichia coli [2]) of the same compound?
**A.** 12.7 mm

**Q.** What about the Zone of inhibition (Klebsiella pneumoniae [9]) of the same compound?
**A.** 11.1 mm

**Q.** What about the Zone of inhibition (Klebsiella pneumoniae [10]) of the same compound?
**A.** 13.7 mm

**Q.** What about the Zone of inhibition (Escherichia coli [5]) of the same compound?
**A.** 13.2 mm

**Q.** And the Zone of inhibition (Escherichia coli [6])?
**A.** 13.1 mm

**Q.** Which Zone of inhibition (Klebsiella pneumoniae [7]) does the source give for `Nc1ccc(S(=O)(=O)Nc2ncccn2)cc1` [SULFADIAZINE] here?
**A.** 29.2 mm

**Q.** And the Zone of inhibition (Escherichia coli [1])?
**A.** 25.5 mm

**Q.** And the Zone of inhibition (Klebsiella pneumoniae [8])?
**A.** 25.6 mm

**Q.** What about the Zone of inhibition (Bacillus subtilis [11]) of the same compound?
**A.** 20.8 mm

**Q.** And the Zone of inhibition (Escherichia coli [2])?
**A.** 17.2 mm

**Q.** What about the Zone of inhibition (Klebsiella pneumoniae [9]) of the same compound?
**A.** 27 mm

**Q.** What about the Zone of inhibition (Klebsiella pneumoniae [10]) of the same compound?
**A.** 29.5 mm

**Q.** And the Zone of inhibition (Bacillus subtilis [12])?
**A.** 26.9 mm

**Q.** What about the Zone of inhibition (Escherichia coli [5]) of the same compound?
**A.** 22.2 mm

**Q.** And the Zone of inhibition (Bacillus subtilis [13])?
**A.** 26.3 mm

**Q.** And the Zone of inhibition (Escherichia coli [6])?
**A.** 9.7 mm

**Q.** What about the Zone of inhibition (Bacillus subtilis [14]) of the same compound?
**A.** 27.2 mm

**Q.** With `Cc1nnc(NS(=O)(=O)c2ccc(N)cc2)s1` [SULFAMETHIZOLE] as the compound, how does the Zone of inhibition (Escherichia coli [1]) read?
**A.** 25.5 mm

**Q.** What about the Zone of inhibition (Escherichia coli [2]) of the same compound?
**A.** 17.4 mm

**Q.** And the Zone of inhibition (Escherichia coli [5])?
**A.** 22.2 mm

**Q.** What about the Zone of inhibition (Escherichia coli [6]) of the same compound?
**A.** 16.2 mm

**Q.** Which Zone of inhibition (Escherichia coli [1]) does the source give for `Nc1ccc(S(N)(=O)=O)cc1` [SULFANILAMIDE] here?
**A.** 25.4 mm

**Q.** And the Zone of inhibition (Escherichia coli [2])?
**A.** 22.3 mm

**Q.** What about the Zone of inhibition (Escherichia coli [5]) of the same compound?
**A.** 22.8 mm

**Q.** And the Zone of inhibition (Escherichia coli [6])?
**A.** 20.4 mm

**Q.** What does the source list for `O=C(NCNc1ccc(S(=O)(=O)Nc2ncccn2)cc1)c1ccc(NC(=O)c2cccnc2)cc1`?
**A.** Zone of inhibition (Klebsiella pneumoniae [7]): 18.3 mm; Zone of inhibition (Escherichia coli [1]): 18.7 mm; Zone of inhibition (Klebsiella pneumoniae [8]): 20.9 mm; Zone of inhibition (Bacillus subtilis [11]): 15.4 mm; Zone of inhibition (Escherichia coli [2]): 10.6 mm; Zone of inhibition (Klebsiella pneumoniae [9]): 18.9 mm; Zone of inhibition (Klebsiella pneumoniae [10]): 19.2 mm; Toxic effect [3]: Not Active; Zone of inhibition (Bacillus subtilis [12]): 25.3 mm; Lethal dose [4]: 1000 mg/kg; Zone of inhibition (Escherichia coli [5]): 13.7 mm; Zone of inhibition (Bacillus subtilis [13]): 22.9 mm; Zone of inhibition (Escherichia coli [6]): 10.4 mm; Zone of inhibition (Bacillus subtilis [14]): 20.4 mm

**Q.** Which Zone of inhibition (Escherichia coli [1]) does the source give for `Cc1cc(C)nc(NS(=O)(=O)c2ccc(NCNC(=O)c3ccc(NC(=O)c4cccnc4)cc3)cc2)n1` here?
**A.** 14.1 mm

**Q.** What about the Zone of inhibition (Bacillus subtilis [11]) of the same compound?
**A.** 6 mm

**Q.** What about the Zone of inhibition (Escherichia coli [2]) of the same compound?
**A.** 13.9 mm

**Q.** What about the Toxic effect [3] of the same compound?
**A.** Not Active

**Q.** And the Zone of inhibition (Bacillus subtilis [12])?
**A.** 17.6 mm

**Q.** And the Lethal dose [4]?
**A.** 1000 mg/kg

**Q.** What about the Zone of inhibition (Escherichia coli [5]) of the same compound?
**A.** 13.7 mm

**Q.** And the Zone of inhibition (Bacillus subtilis [13])?
**A.** 13.6 mm

**Q.** What about the Zone of inhibition (Escherichia coli [6]) of the same compound?
**A.** 11.4 mm

**Q.** And the Zone of inhibition (Bacillus subtilis [14])?
**A.** 11.2 mm

**Q.** With `Cc1cc(NS(=O)(=O)c2ccc(N)cc2)no1` [SULFAMETHOXAZOLE] as the compound, how does the Zone of inhibition (Klebsiella pneumoniae [7]) read?
**A.** 22.4 mm

**Q.** What about the Zone of inhibition (Escherichia coli [1]) of the same compound?
**A.** 23.6 mm

**Q.** What about the Zone of inhibition (Klebsiella pneumoniae [8]) of the same compound?
**A.** 6 mm

**Q.** What about the Zone of inhibition (Bacillus subtilis [11]) of the same compound?
**A.** 22.8 mm

**Q.** And the Zone of inhibition (Escherichia coli [2])?
**A.** 22.9 mm

**Q.** What about the Zone of inhibition (Klebsiella pneumoniae [9]) of the same compound?
**A.** 11.6 mm

**Q.** What about the Zone of inhibition (Klebsiella pneumoniae [10]) of the same compound?
**A.** 26.4 mm

**Q.** And the Zone of inhibition (Bacillus subtilis [12])?
**A.** 27.9 mm

**Q.** And the Zone of inhibition (Escherichia coli [5])?
**A.** 23.2 mm

**Q.** And the Zone of inhibition (Bacillus subtilis [13])?
**A.** 27.4 mm

**Q.** What about the Zone of inhibition (Escherichia coli [6]) of the same compound?
**A.** 19.6 mm

**Q.** And the Zone of inhibition (Bacillus subtilis [14])?
**A.** 25.4 mm

**Q.** Which results are given for `Cc1cc(NS(=O)(=O)c2ccc(NCNC(=O)c3ccc(NC(=O)c4cccnc4)cc3)cc2)no1`?
**A.** Zone of inhibition (Klebsiella pneumoniae [7]): 14.7 mm; Zone of inhibition (Escherichia coli [1]): 13.4 mm; Zone of inhibition (Klebsiella pneumoniae [8]): 13.7 mm; Zone of inhibition (Bacillus subtilis [11]): 14.1 mm; Zone of inhibition (Escherichia coli [2]): 11.5 mm; Zone of inhibition (Klebsiella pneumoniae [9]): 12.5 mm; Zone of inhibition (Klebsiella pneumoniae [10]): 14.4 mm; Toxic effect [3]: Not Active; Zone of inhibition (Bacillus subtilis [12]): 23.5 mm; Lethal dose [4]: 1000 mg/kg; Zone of inhibition (Escherichia coli [5]): 11.8 mm; Zone of inhibition (Bacillus subtilis [13]): 20.7 mm; Zone of inhibition (Escherichia coli [6]): 11.3 mm; Zone of inhibition (Bacillus subtilis [14]): 18.6 mm

**Q.** Which Zone of inhibition (Escherichia coli [1]) does the source give for `Cc1cc(C)nc(NS(=O)(=O)c2ccc(N)cc2)n1` [SULFAMETHAZINE] here?
**A.** 18.5 mm

**Q.** What about the Zone of inhibition (Bacillus subtilis [11]) of the same compound?
**A.** 15.4 mm

**Q.** And the Zone of inhibition (Escherichia coli [2])?
**A.** 16.9 mm

**Q.** What about the Zone of inhibition (Bacillus subtilis [12]) of the same compound?
**A.** 22 mm

**Q.** And the Zone of inhibition (Escherichia coli [5])?
**A.** 18.8 mm

**Q.** What about the Zone of inhibition (Bacillus subtilis [13]) of the same compound?
**A.** 21.7 mm

**Q.** And the Zone of inhibition (Escherichia coli [6])?
**A.** 15.1 mm

**Q.** And the Zone of inhibition (Bacillus subtilis [14])?
**A.** 19.9 mm
